Molecular target: purified PARP protein (Homo sapiens, UniProt P09874)
Assay: PARP Enzyme Inhibition Assay
Type: biochemical
Conditions: [32P]NAD+ incorporation, 500 μM NAD+, 25° C.; competitive inhibition fit; read-out: Inhibition Constant Ki
Protocol: The PARP enzyme-inhibiting activities of test compounds were assayed as described by Simonin et al. (J. Biol. Chem. (1993), 268:8529-8535) and Marsischky et al. (J. Biol. Chem. (1995), 270:3247-3254) with minor modifications as follows. Samples (50 μL) containing 20 nM purified PARP protein, 10 μg/mL DNAse I-activated calf thymus DNA (sigma), 500 μM NAD^+, 0.5 μCi [^32P]NAD^+, 2% DMSO, and various concentrations of test compounds were incubated in sample buffer (50 mM Tris pH 8.0, 10 mM MgCl2, 1 mM tris(carboxyethyl)phosphine HCl) at 25° C. for 5 minutes. Under these conditions, the reaction rate was linear for times up to 10 minutes. The reaction was stopped by the addition of an equal volume of ice-cold 40% trichloroacetic acid to the samples, which were then incubated on ice for 15 minutes. The samples were then transferred to a Bio-Dot microfiltration apparatus (BioRad), filtered through Whatman GF/C glass-fiber filter paper, washed 3 times with 150 μL of wash buffer (5% trichloroacetic acid, 1% inorganic pyrophosphate), and dried. [^32P]ADP-Ribose incorporation into the acid-insoluble material was quantitated using a PhosphorImager (Molecular Dynamics) and ImageQuant software. Inhibition constants (Ki) were calculated by non-linear regression analyses using the velocity equation for competitive inhibition (Segel, Enzyme Kinetics: Behavior and Analysis of Rapid Equilibrium and Steady-State Enzyme Systems, John Wiley & Sons, Inc., New York (1975), 100-125). In the case of tight-binding inhibitors, 5 nM enzyme was used and the reaction was incubated at 25° C. for 25 minutes. Ki values for tight-binding inhibitors were calculated using the equation described by Sculley et al. (Biochim. Biophys. Acta (11986), 874:44-53).

Sequence of purified PARP protein (P09874 whole entry): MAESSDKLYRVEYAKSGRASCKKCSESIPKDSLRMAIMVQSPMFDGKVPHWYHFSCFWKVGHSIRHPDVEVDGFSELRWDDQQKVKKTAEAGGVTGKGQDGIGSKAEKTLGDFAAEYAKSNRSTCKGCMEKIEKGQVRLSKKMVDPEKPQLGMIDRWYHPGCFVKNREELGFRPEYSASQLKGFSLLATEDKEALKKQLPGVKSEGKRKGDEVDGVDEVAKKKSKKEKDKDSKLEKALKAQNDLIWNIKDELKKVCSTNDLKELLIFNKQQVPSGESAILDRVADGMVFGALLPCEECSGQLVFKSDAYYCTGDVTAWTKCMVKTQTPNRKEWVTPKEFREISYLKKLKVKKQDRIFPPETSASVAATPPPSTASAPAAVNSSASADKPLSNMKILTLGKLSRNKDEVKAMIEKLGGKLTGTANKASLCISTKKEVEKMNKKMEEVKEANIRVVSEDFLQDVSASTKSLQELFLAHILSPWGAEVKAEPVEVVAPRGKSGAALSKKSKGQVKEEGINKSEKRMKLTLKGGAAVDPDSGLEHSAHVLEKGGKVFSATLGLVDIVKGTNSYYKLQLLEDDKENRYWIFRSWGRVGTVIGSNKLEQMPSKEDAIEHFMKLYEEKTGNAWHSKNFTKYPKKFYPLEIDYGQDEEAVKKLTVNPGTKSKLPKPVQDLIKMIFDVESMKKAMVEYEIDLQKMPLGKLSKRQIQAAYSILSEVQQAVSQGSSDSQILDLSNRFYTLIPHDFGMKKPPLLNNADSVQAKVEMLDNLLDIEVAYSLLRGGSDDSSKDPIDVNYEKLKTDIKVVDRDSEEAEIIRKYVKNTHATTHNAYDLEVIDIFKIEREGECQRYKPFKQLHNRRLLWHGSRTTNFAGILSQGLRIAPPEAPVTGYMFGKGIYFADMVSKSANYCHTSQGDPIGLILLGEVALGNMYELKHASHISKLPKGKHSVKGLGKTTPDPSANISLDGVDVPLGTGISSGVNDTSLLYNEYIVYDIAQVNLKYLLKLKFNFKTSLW

| SMILES | Ki [nM] |
| --- | --- |
| NC(=O)c1cccc2[nH]c(CSc3ccc(O)cc3)nc12 [Compound 4, 2-(4-Hydroxy-phenylsulfanylmethyl)-1H-benzimidazole-4-carboxylic Acid Amide] | 13 |
| COc1ccc(SCc2nc3c(C(N)=O)cccc3[nH]2)cc1 [Compound 8, 2-(4-Methoxy-phenylsulfanylmethyl)-1H-benzimidazole-4-carboxylic Acid Amide] | 9 ± 1 |
| CCCCCCCSCc1nc2c(C(N)=O)cccc2[nH]1 [Compound 11, 2-Heptylsulfanylmethyl-1H-benzimidazole-4-carboxylic Acid Amide] | 33 ± 6 |
| CSc1ccc(SCc2nc3c(C(N)=O)cccc3[nH]2)cc1 [Compound 14, 2-(4-Methylsulfanyl-phenylsulfanylmethyl)-1H-benzimidazole-4-carboxylic Acid Amide] | 11 ± 2 |
| CN(Cc1nc2c(C(N)=O)cccc2[nH]1)Cc1ccccc1O [Compound 15] | 45 ± 3 |
| CN(Cc1nc2c(C(N)=O)cccc2[nH]1)c1ccccc1 [Compound 20, 2-[(Methyl-phenyl-amino)-methyl]-1H-benzimidazole-4-carboxylic Acid Amide] | 14 ± 3 |
| NC(=O)c1cccc2[nH]c(CN3CCC(N)C3)nc12 (stereo not shown) [Compound 22, 2-(3-Amino-pyrrolidin-1-ylmethyl)-1H-benzimidazole-4-carboxylic Acid Amide] | 17 |
| CNCCN(C)Cc1nc2c(C(N)=O)cccc2[nH]1 [Compound 23, 2-{[Methyl-(2-methylamino-ethyl)-amino]-methyl}-1H-benzimidazole-4-carboxylic Acid Amide] | 14 |
| CCC(=O)Nc1ccc(SCc2nc3c(C(N)=O)cccc3[nH]2)cc1 [Compound 24, 2-(4-Propionylamino-phenylsulfanylmethyl)-1H-benzimidazole-4-carboxylic Acid Amide] | 36 ± 2 |
| NC(=O)c1cccc2[nH]c(CSc3ccc(NC(=O)OCc4ccccc4)cc3)nc12 [Compound 25] | 39 |
| CS(=O)(=O)c1ccc(S(=O)(=O)Cc2nc3c(C(N)=O)cccc3[nH]2)cc1 [Compound 35, 2-(4-Methanesulfonyl-benzenesulfonylmethyl)-1H-benzimidazole-4-carboxylic Acid Amide] | 5 ± 1 |
| COc1ccc(CSc2nc3c(C(N)=O)cccc3[nH]2)cc1 [Compound 43, 2-(4-Methoxy-benzylsulfanyl)-1H-benzimidazole-4-carboxylic Acid Amide] | 6.5 ± 1.5 |
| NC(=O)c1cccc2[nH]c(CSCCN3CCOCC3)nc12 [Compound 45, 2-(2-Morpholin-4-yl-ethylsulfanylmethyl)-1H-benzimidazole-4-carboxylic Acid Amide] | 48 ± 1 |
| NC(=O)c1cccc2[nH]c(CS(=O)(=O)c3ccc(N4C(=O)CNC4=O)cc3)nc12 [Compound 51, 2-[4-(2,5-Dioxo-imidazolidin-1-yl)-benzenesulfonylmethyl]-1H-benzoimidazole-4-carboxylic Acid Amide] | 24 ± 3 |

Further compounds by falling Ki, results first:

| Ki [nM] | SMILES |
| --- | --- |
| 800 | NC(=O)c1cccc2[nH]c(S(=O)(=O)Cc3ccccc3)nc12 [Compound 41, 2-Phenylmethansulfonyl-1H-benzimidazole-4-carboxylic Acid Amide] |
| 102 | NC(=O)c1cccc2[nH]c(CSc3nnc(-c4ccccc4)o3)nc12 [Compound 6, 2-(5-Phenyl-[1,3,4]oxadiazol-2-ylsulfanylmethyl)-1H-benzimidazole-4-carboxylic Acid Amide] |
| 93 ± 10 | NC(=O)c1cccc2c1nc1n2CCSC1 [Compound 47, 3,4-Dihydro-1H-2-thia-4a,9-diaza-fluorene-8-carboxylic Acid Amide] |
| 91 ± 3 | CN(C)c1ccc(SCc2nc3c(C(N)=O)cccc3[nH]2)cc1 [Compound 12, 2-(4-Dimethylamino-phenylsulfanylmethyl)-1H-benzimidazole-4-carboxylic Acid Amide] |
| 70 ± 15 | NC(=O)c1cccc2[nH]c(SCc3ccccc3)nc12 [Compound 40, 2-Benzylsulfanyl-1H-benzimidazole-4-carboxylic Acid Amide] |
| 61 ± 10 | CCCCCCCS(=O)(=O)Cc1nc2c(C(N)=O)cccc2[nH]1 [Compound 31, 2-(Heptane-1-sulfonylmethyl)-1H-benzimidazole-4-carboxylic Acid Amide] |
| 39 ± 5 | NC(=O)c1cccc2[nH]c(CSc3ccc(C(F)(F)F)cc3)nc12 [Compound 13, 2-(4-Trifluoromethyl-phenylsulfanylmethyl)-1H-benzimidazole-4-carboxylic Acid Amide] |
| 38 ± 1 | COC(=O)Nc1ccc(SCc2nc3c(C(N)=O)cccc3[nH]2)cc1 [Compound 26] |
| 33 ± 3 | NC(=O)c1cccc2[nH]c(CSCCN3CCc4ccccc4C3)nc12 [Compound 46, 2-[2-(3,4-Dihydro-1H-isoquinolin-2-yl)-ethylsulfanylmethyl]-1H-benzoimidazole-4-carboxylic Acid Amide] |
| 29.5 ± 2.5 | NC(=O)Nc1ccc(S(=O)(=O)Cc2nc3c(C(N)=O)cccc3[nH]2)cc1 [Compound 39, 2-(4-Ureido-benzenesulfonylmethyl)-1H-benzoimidazole-4-carboxylic Acid Amide] |
| 28.5 ± 0.5 | COC(=O)Nc1ccc(S(=O)(=O)Cc2nc3c(C(N)=O)cccc3[nH]2)cc1 [Compound 37, [4-(4-Carbamoyl-1H-benzoimidazol-2-ylmethanesulfonyl)-phenyl]-carbamic Acid Methyl Ester] |
| 27 ± 4 | CSc1nc2c(C(N)=O)cccc2[nH]1 [Compound 52, 2-Methylsulfanyl-3H-benzoimidazolc-4-carboxylic Acid Amide] |
| 17.8 ± 0.8 | CCC(=O)Nc1ccc(S(=O)(=O)Cc2nc3c(C(N)=O)cccc3[nH]2)cc1 [Compound 36, 2-(4-Propionylamino-benzenesulfonylmethyl)-1H-benzimidazole-4-carboxylic Acid Amide] |
| 17 ± 1 | NC(=O)c1cccc2[nH]c(CSc3ccc(N)cc3)nc12 [Compound 10, 2-(4-Amino-phenylsulfanylmethyl)-1H-benzimidazole-4-carboxylic Acid Amide] |
| 15 ± 3 | NC(=O)c1cccc2[nH]c(CNCCCN3CCCC3)nc12 [Compound 16, 2-[(3-Pyrrolidin-1-yl-propylamino)-methyl]-1H-benzimidazole-4-carboxylic Acid Amide] |
| 12 | NC(=O)c1cccc2[nH]c(CSc3nc4ccccc4s3)nc12 [Compound 2, 2-(Benzothiazol-2-ylsulfanylmethyl)-1H-benzimidazole-4 carboxylic Acid Amide] |
| 11 ± 1 | CC(=O)Nc1nnc(SCc2nc3c(C(N)=O)cccc3[nH]2)s1 [Compound 5, 2-(5-Acetylamino-[1,3,4]thiadiazol-2-ylsulfanylmethyl)-1H-benzimidazole-4-carboxylic Acid Amide] |
| 9 ± 2 | NC(=O)c1cccc2[nH]c(CNC3CN4CCC3CC4)nc12 (stereo not shown) [Compound 21, 2-[(1-Aza-bicyclo[2.2.2]oct-3-ylamino)-methyl]-1H-benzimidazole-4-carboxylic Acid Amide] |
| 8 | NC(=O)c1cccc2[nH]c(CSc3ccc([N+](=O)[O-])cc3)nc12 [Compound 3, 2-(4-Nitro-phenylsulfanylmethyl)-1H-benzimidazole-4-carboxylic Acid Amide] |
| 4.7 ± 0.2 | NC(=O)c1cccc2[nH]c(SCc3ccc([N+](=O)[O-])cc3)nc12 [Compound 44, 2-(4-Nitro-benzylsulfanyl)-1H-benzimidazole-4-carboxylic Acid Amide] |

— patent US20040034078A1 (Agouron Pharmaceuticals, Inc., priority 2002, published 2004)
